Patent publication US20220274983A1, “JAK KINASE INHIBITOR AND USE THEREOF” (JIANGSU CAREPHAR PHARMACEUTICAL CO., LTD., priority 2019, published 2022)
Each block holds one compound with its values, some of them ahead of it.

Key:
[1] = test system: BaF3 cells; assay: Proliferation inhibition based on BaF3 cells (IL-3 medium, CTG); type: cell-based; conditions: Mus musculus, medium containing IL-3, read-out: IC50 (uM), proliferation inhibitory activity on BaF3 cells
Protocol: 1. Cell plating: cultured cells were collected with RPMI1640+10% FBS (containing IL-3) medium and counted for viable cells with Vi-Cell XR cell counter. The cell suspension was adjusted to an appropriate concentration with RPMI1640+10% FBS (containing IL-3) medium and then added to a 96-well cell culture plate. A certain amount of cell suspension was added to each well of the 96-well cell culture plate. The cells were cultured in corresponding incubators.
2. Drug treatment: a series of test compound concentration (work solution-1) was prepared using DMSO with 3× gradient dilution, and then it was subjected to fold dilution with RPMI1640+10% FBS (containing IL-3) to obtain a work solution-2; Cisplatin's work solution-2 was prepared with RPMI1640+10% FBS (containing IL-3), and then 1-10 μL solution taken from the work solution-2 was added to the prepared cell wells containing medium. The cells were cultured in the corresponding incubators. An appropriate CTG solution was added to each well.
Cell Survival Rate Calculation
T is the luminescence reading of a drug treatment group, and C is the average luminescence reading of a solvent control group.

[2] = test system: main human CYP molecular species (CYP1A2, 2B6, 2C8, 2C9, 2C19, 2D6 and 3A4); assay: CYP inhibition test in mixed human liver microsomes; type: in vitro ADME
Protocol: Commercially available mixed human liver microsomes were used for the typical substrate metabolism reaction of the main human CYP molecular species (CYP1A2, 2B6, 2C8, 2C9, 2C19, 2D6 and 3A4). The reaction conditions were as follows: substrate, CYP1A2: 30 μM of phenacetin; CYP2C9: diclofenac 10 μM; CYP2C19: 35 μM of S-methphenytoin; CYP3A4: midazolam 5 μM, testosterone 80 μM; CYP2D6: bufuralol, 10 μM; CYP2C8: 10 μM of paclitaxel; and CYP2B6: bupropion 70 μM; reaction time, CYP1A2, 2C9, 2D6, 2C8, 2B6: 10 min; CYP2C19: 45 min; and CYP3A4: 5 min. Reaction temperature, 37° C. Inhibitor (positive control), CYP1A2: α-naphthoflavone; CYP2C9: sulfaphenazole; CYP2C19: omeprazole; CYP3A4: ketoconazole; CYP2D6: quinidine; CYP2C8: nicardipine; and CYP2B6: clopidogrel.
A series of dilutions for the test compound and the positive control were prepared in a 96-well plate, and 8 μL of 10 mM test compound was transferred to 12 μL of ACN. 1:3 serial dilution was performed in a DMSO:ACN mixture (v/v: 40:60). HLM was added to assay wells, and then the test compound or a reference inhibitor solution diluted with serum was added to the designated wells on ice. After the 96-well plate and NADPH solution was pre-incubated at 37° C. for 5 min, 15 μL of the pre-warmed 8 mM NADPH solution was added to the assay plate to start the reaction. […]

[3] = test system: Salmonella TA98, TA100, TA1535, TA1537 and Escherichia coli; assay: Reverse mutation test (Ames test); parameters: species or system Salmonella typhimurium; conditions: non-metabolic activation conditions and activation conditions (-S9/+S9)
Protocol: Salmonella TA98, TA100, TA1535, TA1537 and Escherichia coli were used as test strains (strain source: Molecular Toxicology, Inc.). Ames test was performed under non-metabolic activation conditions and activation conditions to investigate whether the compounds according to the present invention have gene mutation inducing properties.
The cryopreserved strains were resuscitated, inoculated into nutrient broth medium and cultured in a 37° C. constant temperature shaker at 100 to 120 rpm for 11 h. The bottom agar medium (containing an appropriate amount of agar, V-B buffer, 20% glucose solution, 20% magnesium sulfate solution) was poured into a dish to cool for later use. […] The cultured plate was removed, counted and compared with the DMSO group for evaluation. If the average number of reverted colonies is twice or more than the number of reverted colonies in the negative control group (which can be regarded as spontaneous reverted number) (TA1535: 3 times or more) and there is a dose-effect relationship, the result is positive, and the test sample can be determined to be a mutagenic agent. […]

[4] = Body weight of CIA rats
Protocol: Lewis rats (female, 10-12 weeks old) were obtained from Beijing Vital River Laboratory Animal Technology Co., Ltd. The rats were on a light and dark alternation for 12 h, and the environment was kept at a temperature of 23±2° C. and a humidity of 40-70%.
Type II collagen solution (2 mg/mL) was prepared with 0.05 M acetic acid solution to allow to be fully dissolved, and placed overnight in the dark at 4° C. During the test, 2 mg/mL type II collagen (C II) solution and 4 mg/mL complete Freund's adjuvant (CFA) solution were mixed in equal volumes under ice bath conditions to fully emulsify. On day 0, an emulsion prepared by mixing equal volumes of C II (2 mg/mL) and CFA (4 mg/mL) was injected intracutaneously into the base of the tail of experimental rats for primary immunization, and on day 7, secondary booster immunization was performed.
The therapeutic effect of the test compound was tested in a rat CIA model. The rats were randomly divided into groups with 8 animals in each group. All animals were immunized on day 0 and boosted on day 7.
Therefore, the differences in body weight and foot volume after the onset of arthritis compared with the negative group, respectively, can be used to evaluate the therapeutic effect in the rat model. The experimental data were expressed as Mean±SEM; the data between the two groups was tested by unpaired t-test and p<0.05 was considered as a significant difference.

- IC50 [1]: < 5 µM
Compound: O=C(Nc1nc2cccc(-c3ccc(CN4CCS(=O)(=O)CC4)s3)n2n1)C1CC1 [EXP-1]

Compound: O=C(Nc1cn2c(-c3ccc(CN4CCS(=O)(=O)CC4)s3)cccc2n1)[C@H]1C[C@@H]1F (relative stereo) [EXP-3, trans-N-[5-[5-[(1,1-dioxo-1,4-thiazin-4-yl)methyl]-2-thiophene]imidazo[1,2-a]pyridin-2-yl]-2-fluoro-cyclopropylcarboxamide]
- IC50 [1]: < 5 µM
- CYP inhibition [2]: no inhibitory effect
- Ames test result [3]: negative
- Body weight (g)/Day ([4]; 2 mg/kg oral gavage once daily for 2 w, day 0): 172.3 ± 1.9 g
- Body weight (g)/Day ([4]; 2 mg/kg oral gavage once daily for 2 w, day 8): 172.6 ± 0.7 g
- Body weight (g)/Day ([4]; 2 mg/kg oral gavage once daily for 2 w, day 11): 172.3 ± 1.8 g
- Body weight (g)/Day ([4]; 2 mg/kg oral gavage once daily for 2 w, day 14): 170.3 ± 1 g
- Body weight (g)/Day ([4]; 2 mg/kg oral gavage once daily for 2 w, day 17): 169.1 ± 1.2 g
- Body weight (g)/Day ([4]; 2 mg/kg oral gavage once daily for 2 w, day 21): 164.9 ± 1.8 g
- Body weight (g)/Day ([4]; 2 mg/kg oral gavage once daily for 2 w, day 24): 166.4 ± 2.6 g
- Body weight (g)/Day ([4]; 2 mg/kg oral gavage once daily for 2 w, day 28): 166.9 ± 2.7 g
- Body weight (g)/Day ([4]; 3 mg/kg oral gavage once daily for 2 w, day 0): 174.5 ± 1.3 g
- Body weight (g)/Day ([4]; 3 mg/kg oral gavage once daily for 2 w, day 8): 172.4 ± 2.7 g
- Body weight (g)/Day ([4]; 3 mg/kg oral gavage once daily for 2 w, day 11): 170.8 ± 3.8 g
- Body weight (g)/Day ([4]; 3 mg/kg oral gavage once daily for 2 w, day 14): 171.6 ± 2.9 g
- Body weight (g)/Day ([4]; 3 mg/kg oral gavage once daily for 2 w, day 17): 170.1 ± 2.7 g
- Body weight (g)/Day ([4]; 3 mg/kg oral gavage once daily for 2 w, day 21): 166.8 ± 1.8 g
- Body weight (g)/Day ([4]; 3 mg/kg oral gavage once daily for 2 w, day 24): 165 ± 1.8 g
- Body weight (g)/Day ([4]; 3 mg/kg oral gavage once daily for 2 w, day 28): 169.3 ± 2 g
- Body weight (g)/Day ([4]; 5 mg/kg oral gavage once daily for 2 w, day 0): 171.8 ± 2.3 g
- Body weight (g)/Day ([4]; 5 mg/kg oral gavage once daily for 2 w, day 8): 171.1 ± 3.1 g
- Body weight (g)/Day ([4]; 5 mg/kg oral gavage once daily for 2 w, day 11): 170.9 ± 4.5 g
- Body weight (g)/Day ([4]; 5 mg/kg oral gavage once daily for 2 w, day 14): 171.4 ± 2.4 g
- Body weight (g)/Day ([4]; 5 mg/kg oral gavage once daily for 2 w, day 17): 172.8 ± 2.2 g
- Body weight (g)/Day ([4]; 5 mg/kg oral gavage once daily for 2 w, day 21): 166.5 ± 1.9 g
- Body weight (g)/Day ([4]; 5 mg/kg oral gavage once daily for 2 w, day 24): 165.3 ± 1.7 g
- Body weight (g)/Day ([4]; 5 mg/kg oral gavage once daily for 2 w, day 28): 169.1 ± 2.1 g
- body weight course, in words ([4]; 10 mg/kg): increased slightly on days 11-17, but then fell back
- Body weight (g)/Day ([4]; 10 mg/kg oral gavage once daily for 2 w, day 0): 173.9 ± 1.8 g
- Body weight (g)/Day ([4]; 10 mg/kg oral gavage once daily for 2 w, day 8): 175.3 ± 2.1 g
- Body weight (g)/Day ([4]; 10 mg/kg oral gavage once daily for 2 w, day 11): 175.9 ± 2.8 g
- Body weight (g)/Day ([4]; 10 mg/kg oral gavage once daily for 2 w, day 14): 175.3 ± 2.2 g
- Body weight (g)/Day ([4]; 10 mg/kg oral gavage once daily for 2 w, day 17): 176.4 ± 3.3 g
- Body weight (g)/Day ([4]; 10 mg/kg oral gavage once daily for 2 w, day 21): 171.8 ± 2.9 g
- Body weight (g)/Day ([4]; 10 mg/kg oral gavage once daily for 2 w, day 24): 166.3 ± 2.9 g
- Body weight (g)/Day ([4]; 10 mg/kg oral gavage once daily for 2 w, day 28): 170.4 ± 3.1 g
